Measured values: patent publication US20230039219A1, “Improved Cell-Permeable Nuclear Import Inhibitor Synthetic Peptide for Inhibition of Cytokine Storm or Inflammatory Disease and Use Thereof” (priority 2020, published 2023)
Bridge positions count the residues as written; N and C are the ends. Ends that are not written are not given here. Peptide text beside a SMILES is read from it.

Legend:
[1] = system: LPS/D-Gal acute liver injury model; assay: LPS/D-galactosamine-induced acute liver injury model; settings: LPS/D-Gal challenge; FIG. 1, 2, 4
[2] = set-up: species or system C57BL/6 mice; settings: mouse, in vivo, iv
Description: To evaluate the pharmacokinetics of iCP-NI in the lungs, 6-8 weeks old C57BL/6 mice were intravenously administered with 100 mg/kg of FITC-conjugated iCP-NI. Subsequently, mice were sacrificed at various time points and lung tissues were obtained for pharmacokinetic analysis. Also, other tissues (brain, heart, liver, spleen, kidney, small/large intestine and pancreas) were collected for distribution of iCP-NI analysis. Representative lung tissue specimens were perfusion-fixed with 4% paraformaldehyde (PFA; BIOSESANG, Cat No. PC2031-100-00) and incubated in 30% sucrose solution overnight at 4° C. Next, specimens were embedded in optimal cutting temperature (OCT) compound (Leica Biosystems, Cat No. 3801480) and cryo-sectioned to a 10 μm thickness onto microscope glass slide. The cryo-sectioned samples were washed thoroughly with PBS and incubated with ammonium chloride (NH4Cl, Sigma-Aldrich, Cat No. A9434) solution for 20 minutes at room temperature (RT). The samples were mounted with DAPI-containing mounting solution (Invitrogen, Cat No. 00-4959-52) and visualized by fluorescence microscopy using a confocal laser scanning microscope system (Leica SP8) and the images were processed with Leica LAS X software).

time high levels remained in lung tissue [2] [h] | Compound | effect on survival, comparison in words [1]
– | 1NLS: linear nuclear localization sequence from NF-κB1 (p50); Table 1 prints VQRKRQKLMP (SEQ ID NO. 8) (NLS) [Structure 1NLS] | not enhanced
≥ 8 | CC[C@H](C)[C@H](N)C(=O)N[C@@H](C)C(=O)N[C@@H](C)C(=O)N[C@H](C(=O)N[C@@H](CC(C)C)C(=O)N[C@@H](C)C(=O)N[C@@H](C)C(=O)N1CCC[C@H]1C(=O)N[C@@H](C)C(=O)N[C@@H](CC(C)C)C(=O)N[C@H](C(=O)N1CCC[C@H]1C(=O)N[C@H]1CSSC[C@@H](C(=O)O)NC(=O)[C@@H]2CCCN2C(=O)[C@H](CCSC)NC(=O)[C@H](CC(C)C)NC(=O)[C@H](CCCCN)NC(=O)[C@H](CCC(N)=O)NC(=O)[C@H](CCCNC(=N)N)NC(=O)[C@H](CCCCN)NC(=O)[C@H](CCCNC(=N)N)NC(=O)[C@H](CCC(N)=O)NC(=O)[C@H](C(C)C)NC1=O)C(C)C)C(C)C [iCP-NI] (H-IAAVLAAPALVPCVQRKRQKLMPC-OH; disulfide 13-24; N-terminus and C-terminus assumed) | –
– | cNLS: circular NLS CVQRKRQKLMPC (SEQ ID NO. 1), no aMTD (also: cyclised, mode not given here) | not enhanced
